Laboratory results from the NIST ThermoML archive (doi:10.1021/acs.jced.5b01000).

Legend:
[1] = refractive index (Na D-line) (dimensionless); xn = mol fraction of the nth substance listed; conditions: 99 kPa, Liquid, Standard Abbe refractometry
[2] = xn = mol fraction of the nth substance listed; conditions: 99 kPa, Liquid; for viscosity: Capillary tube (Ostwald / Ubbelohde) method; for speed of sound: Frequency=3 MHz, Sing-around technique in a fixed-path interferometer; for mass density: Vibrating tube method

CC(=O)N(C)C [N,N-dimethylethanamide] + CCO
Conditions | mass density, [2] [kg/m3] | refractive index, [1] | speed of sound, [2] [m/s] | viscosity, [2] [mPa·s]
283.15 K, x1 = 0.0524 | 811.441 | 1.37246 | 1225.3 | 1.369
283.15 K, x1 = 0.1071 | 824.492 | 1.37916 | 1254.6 | 1.306
283.15 K, x1 = 0.2064 | 845.481 | 1.39001 | 1298 | 1.229
283.15 K, x1 = 0.3022 | 863.302 | 1.39925 | 1334.9 | 1.187
283.15 K, x1 = 0.4057 | 880.337 | 1.40801 | 1369.6 | 1.166
283.15 K, x1 = 0.5032 | 894.71 | 1.41538 | 1399.5 | 1.161
283.15 K, x1 = 0.6016 | 907.87 | 1.42196 | 1427.3 | 1.16
283.15 K, x1 = 0.7065 | 920.678 | 1.42823 | 1454 | 1.164
283.15 K, x1 = 0.8013 | 931.158 | 1.43325 | 1476.5 | 1.17
283.15 K, x1 = 0.9021 | 941.312 | 1.43826 | 1498.3 | 1.172
283.15 K, x1 = 0.9529 | 946.061 | 1.44059 | 1508.5 | 1.169
283.15 K, x1 = 1 | 950.131 | 1.44273 | 1516.8 | 1.168
298.15 K, x1 = 0.0524 | 798.435 | 1.36619 | 1172.1 | 1.038
298.15 K, x1 = 0.1071 | 811.331 | 1.37281 | 1199.9 | 1.003
298.15 K, x1 = 0.2064 | 832.087 | 1.38351 | 1242.5 | 0.9558
298.15 K, x1 = 0.3022 | 849.767 | 1.39264 | 1277.4 | 0.9319
298.15 K, x1 = 0.4057 | 866.689 | 1.40131 | 1312.1 | 0.9212
298.15 K, x1 = 0.5032 | 881.006 | 1.40863 | 1341 | 0.9169
298.15 K, x1 = 0.6016 | 894.141 | 1.41518 | 1367.9 | 0.921
298.15 K, x1 = 0.7065 | 906.822 | 1.42135 | 1394.4 | 0.9259
298.15 K, x1 = 0.8013 | 917.351 | 1.4264 | 1415.7 | 0.9311
298.15 K, x1 = 0.9021 | 927.481 | 1.43136 | 1437.6 | 0.9309
298.15 K, x1 = 0.9529 | 932.213 | 1.43367 | 1446.3 | 0.9307
298.15 K, x1 = 1 | 936.289 | 1.43579 | 1453.7 | 0.9299
313.15 K, x1 = 0.0524 | 785.68 | 1.35974 | 1120.6 | 0.8029
313.15 K, x1 = 0.1071 | 798.43 | 1.36632 | 1147.6 | 0.7849
313.15 K, x1 = 0.2064 | 818.908 | 1.37691 | 1188.7 | 0.7611
313.15 K, x1 = 0.3022 | 836.413 | 1.38598 | 1222.6 | 0.7493
313.15 K, x1 = 0.4057 | 853.186 | 1.39461 | 1256.3 | 0.7462
313.15 K, x1 = 0.5032 | 867.418 | 1.40189 | 1284.2 | 0.7469
313.15 K, x1 = 0.6016 | 880.488 | 1.40843 | 1310.5 | 0.7516
313.15 K, x1 = 0.7065 | 893.143 | 1.41463 | 1336.3 | 0.7581
313.15 K, x1 = 0.8013 | 903.56 | 1.41962 | 1358.5 | 0.7623
313.15 K, x1 = 0.9021 | 913.657 | 1.4246 | 1378.5 | 0.7643
313.15 K, x1 = 0.9529 | 918.346 | 1.42688 | 1386 | 0.7651
313.15 K, x1 = 1 | 922.429 | 1.42901 | 1393.3 | 0.7644

CC(=O)N(C)C [N,N-dimethylethanamide] + CO
Conditions | mass density, [2] [kg/m3] | refractive index, [1] | speed of sound, [2] [m/s] | viscosity, [2] [mPa·s]
283.15 K, x1 = 0.0602 | 823.325 | 1.34879 | 1204.4 | 0.7266
283.15 K, x1 = 0.1088 | 838.649 | 1.35969 | 1242 | 0.7638
283.15 K, x1 = 0.2079 | 864.147 | 1.37803 | 1305.6 | 0.831
283.15 K, x1 = 0.304 | 883.509 | 1.39207 | 1353.4 | 0.892
283.15 K, x1 = 0.4055 | 899.792 | 1.40414 | 1394 | 0.9491
283.15 K, x1 = 0.5011 | 912.039 | 1.41331 | 1424.8 | 0.9971
283.15 K, x1 = 0.6014 | 922.607 | 1.42138 | 1450.4 | 1.041
283.15 K, x1 = 0.7036 | 931.645 | 1.42811 | 1473.1 | 1.083
283.15 K, x1 = 0.803 | 938.688 | 1.43369 | 1489.2 | 1.117
283.15 K, x1 = 0.9076 | 945.177 | 1.43878 | 1505 | 1.149
283.15 K, x1 = 0.9502 | 947.535 | 1.4407 | 1510.7 | 1.158
283.15 K, x1 = 1 | 950.131 | 1.44273 | 1516.8 | 1.168
298.15 K, x1 = 0.0602 | 809.208 | 1.3423 | 1154.4 | 0.5868
298.15 K, x1 = 0.1088 | 824.553 | 1.35319 | 1190.7 | 0.6156
298.15 K, x1 = 0.2079 | 849.999 | 1.37142 | 1250.8 | 0.6706
298.15 K, x1 = 0.304 | 869.253 | 1.38536 | 1297.1 | 0.7197
298.15 K, x1 = 0.4055 | 885.574 | 1.39737 | 1336 | 0.764
298.15 K, x1 = 0.5011 | 897.92 | 1.40652 | 1365.2 | 0.8017
298.15 K, x1 = 0.6014 | 908.603 | 1.41458 | 1391.2 | 0.8364
298.15 K, x1 = 0.7036 | 917.769 | 1.42131 | 1413.5 | 0.8692
298.15 K, x1 = 0.803 | 924.814 | 1.42684 | 1429.2 | 0.8941
298.15 K, x1 = 0.9076 | 931.291 | 1.43186 | 1443.4 | 0.9147
298.15 K, x1 = 0.9502 | 933.67 | 1.43378 | 1449.2 | 0.9232
298.15 K, x1 = 1 | 936.289 | 1.43579 | 1453.7 | 0.9299
313.15 K, x1 = 0.0602 | 794.82 | 1.33598 | 1103.1 | 0.479
313.15 K, x1 = 0.1088 | 810.116 | 1.3468 | 1138.1 | 0.5045
313.15 K, x1 = 0.2079 | 835.563 | 1.36494 | 1196.3 | 0.5501
313.15 K, x1 = 0.304 | 854.874 | 1.37881 | 1240.7 | 0.5911
313.15 K, x1 = 0.4055 | 871.236 | 1.39075 | 1278.3 | 0.6287
313.15 K, x1 = 0.5011 | 883.681 | 1.39987 | 1306.9 | 0.6592
313.15 K, x1 = 0.6014 | 894.459 | 1.40791 | 1332.7 | 0.689
313.15 K, x1 = 0.7036 | 903.693 | 1.4146 | 1353 | 0.7156
313.15 K, x1 = 0.803 | 910.885 | 1.42013 | 1370.2 | 0.7362
313.15 K, x1 = 0.9076 | 917.391 | 1.42511 | 1383.7 | 0.7539
313.15 K, x1 = 0.9502 | 919.775 | 1.42701 | 1388.9 | 0.7607
313.15 K, x1 = 1 | 922.429 | 1.42901 | 1393.3 | 0.7644
